Literature values as cited in patent publication US12721834B2, “Combination treatment for Netherton syndrome” (Quoin Pharmaceuticals Inc., priority 2023, dated 2026).

Details: in vivo

Row | Substance | dermal toxicity
1 | Poly(vinylpyrrolidone/1-eicosene) [PVPE] | no demonstrable dermal toxicity
2 | Poly(vinylpyrrolidone/1-hexadecene) [PVPH] | no demonstrable dermal toxicity
